Measurements as given in article PMC5218480 (PLoS ONE, 2017).

Test system: MV-4-11 cells
Test: Gene expression microarray analysis (Affymetrix PrimeView) and GSEA
Format: cell-based, human
Parameters: RFU PODN (11730768_x_at) / Fold change /veh PODN (11730768_x_at) / RFU LINC00158 (11744669_a_at) / Fold change /veh LINC00158 (11744669_a_at) / RFU DUSP10 (11751237_a_at) / Fold change /veh DUSP10 (11751237_a_at) / RFU ID3 (11757404_x_at) / Fold change /veh ID3 (11757404_x_at) / RFU PLEKHG5 (11737974_s_at) / Fold change /veh PLEKHG5 (11737974_s_at) / RFU LRRC4B (11730491_at) / Fold change /veh LRRC4B (11730491_at) / RFU GIMAP4 (11747438_a_at) / Fold change /veh GIMAP4 (11747438_a_at) / RFU KRT8 (11758183_x_at) / Fold change /veh KRT8 (11758183_x_at) / RFU CNN1 (11734310_a_at) / Fold change /veh CNN1 (11734310_a_at) / RFU VPS37D (11726825_at) / Fold change /veh VPS37D (11726825_at) / RFU C10orf10 (11716522_x_at) / Fold change /veh C10orf10 (11716522_x_at) / RFU KIR2DL2 /// KIR2DL4 /// KIR2DL5A /// KIR2DL5B /// KIR2DS1 /// KIR2DS2 /// KIR2DS3 /// KIR2DS4 /// KIR3DL3 /// KIR3DL3 /// KIR3DS1 (11738374_at) / Fold change /veh KIR2DL2 /// KIR2DL4 /// KIR2DL5A /// KIR2DL5B /// KIR2DS1 /// KIR2DS2 /// KIR2DS3 /// KIR2DS4 /// KIR3DL3 /// KIR3DL3 /// KIR3DS1 (11738374_at) / RFU C1QL1 (11718748_at) / Fold change /veh C1QL1 (11718748_at) / RFU TMPRSS4 (11747572_a_at) / Fold change /veh TMPRSS4 (11747572_a_at) / RFU HAMP (11756126_x_at) / Fold change /veh HAMP (11756126_x_at) / RFU RNFT2 (11725882_a_at) / Fold change /veh RNFT2 (11725882_a_at) / RFU NR4A2 (11747474_a_at) / Fold change /veh NR4A2 (11747474_a_at) / RFU ABCC12 (11746883_a_at) / Fold change /veh ABCC12 (11746883_a_at) / RFU TMEM136 (11760407_x_at) / Fold change /veh TMEM136 (11760407_x_at) / RFU CLDN22 /// WWC2 (11732394_at) / Fold change /veh CLDN22 /// WWC2 (11732394_at) / RFU HLA-DPB1 (11760878_x_at) / Fold change /veh HLA-DPB1 (11760878_x_at) / RFU SPINT1 (11716480_a_at) / Fold change /veh SPINT1 (11716480_a_at) / RFU GAP43 (11754022_s_at) / Fold change /veh GAP43 (11754022_s_at) / RFU A4GNT (11735810_at) / Fold change /veh A4GNT (11735810_at) / RFU PRB3 (11715151_x_at) / Fold change /veh PRB3 (11715151_x_at) / RFU TUBB4B (11761932_at) / Fold change /veh TUBB4B (11761932_at) / RFU CAPN14 (11732068_a_at) / Fold change /veh CAPN14 (11732068_a_at) / RFU TMCC2 (11721928_a_at) / Fold change /veh TMCC2 (11721928_a_at) / RFU IRGQ (11745062_a_at) / Fold change /veh IRGQ (11745062_a_at) / RFU FAM174B (11720279_a_at) / Fold change /veh FAM174B (11720279_a_at) / RFU TMPRSS4 (11748680_a_at) / Fold change /veh TMPRSS4 (11748680_a_at) / RFU FAM212B (11763350_a_at) / Fold change /veh FAM212B (11763350_a_at) / RFU PLEKHG5 (11743358_a_at) / Fold change /veh PLEKHG5 (11743358_a_at) / RFU ZSCAN30 (11745921_a_at) / Fold change /veh ZSCAN30 (11745921_a_at) / RFU CMKLR1 (11741424_a_at) / Fold change /veh CMKLR1 (11741424_a_at) / RFU LOC101060620 /// MAPK8IP1 (11723275_at) / Fold change /veh LOC101060620 /// MAPK8IP1 (11723275_at) / RFU SPTSSB (11747773_x_at) / Fold change /veh SPTSSB (11747773_x_at) / RFU PRSS12 (11739890_at) / Fold change /veh PRSS12 (11739890_at) / RFU BIN1 (11741810_x_at) / Fold change /veh BIN1 (11741810_x_at) / RFU WNT11 (11732464_a_at) / Fold change /veh WNT11 (11732464_a_at) / RFU C10orf10 (11716521_a_at) / Fold change /veh C10orf10 (11716521_a_at) / RFU C5orf56 (11738089_at) / Fold change /veh C5orf56 (11738089_at) / RFU CYB561 (11721691_x_at) / Fold change /veh CYB561 (11721691_x_at) / RFU ANKRD19P (11752326_a_at) / Fold change /veh ANKRD19P (11752326_a_at) / RFU OR2T12 /// OR2T33 /// OR2T8 (11738714_s_at) / Fold change /veh OR2T12 /// OR2T33 /// OR2T8 (11738714_s_at) / RFU VCAN (11748164_a_at) / Fold change /veh VCAN (11748164_a_at) / RFU JSRP1 (11732532_at) / Fold change /veh JSRP1 (11732532_at) / RFU KRTAP10-11 (11738290_x_at) / Fold change /veh KRTAP10-11 (11738290_x_at) / RFU MYO3A (11730013_a_at) / Fold change /veh MYO3A (11730013_a_at) / RFU EBF3 (11725865_a_at) / Fold change /veh EBF3 (11725865_a_at) / RFU CAMK2N1 (11719241_x_at) / Fold change /veh CAMK2N1 (11719241_x_at) / RFU C5orf56 (11738088_a_at) / Fold change /veh C5orf56 (11738088_a_at) / RFU OLFML3 (11715873_a_at) / Fold change /veh OLFML3 (11715873_a_at) / RFU LOC100653217 /// NTM (11731650_a_at) / Fold change /veh LOC100653217 /// NTM (11731650_a_at) / RFU MAPK11 (11762145_a_at) / Fold change /veh MAPK11 (11762145_a_at) / RFU FIZ1 (11724087_x_at) / Fold change /veh FIZ1 (11724087_x_at) / RFU OASL (11726364_x_at) / Fold change /veh OASL (11726364_x_at) / RFU SOX15 (11748057_x_at) / Fold change /veh SOX15 (11748057_x_at) / RFU CD79A (11719716_a_at) / Fold change /veh CD79A (11719716_a_at) / RFU HIST1H1D (11736915_at) / Fold change /veh HIST1H1D (11736915_at) / RFU CASKIN2 (11723855_a_at) / Fold change /veh CASKIN2 (11723855_a_at) / RFU LOC730098 (11760151_x_at) / Fold change /veh LOC730098 (11760151_x_at) / RFU OR4N2 (11742367_at) / Fold change /veh OR4N2 (11742367_at) / RFU PRRT2 (11749266_a_at) / Fold change /veh PRRT2 (11749266_a_at) / RFU SNX32 (11753110_a_at) / Fold change /veh SNX32 (11753110_a_at) / RFU CDHR5 (11726645_a_at) / Fold change /veh CDHR5 (11726645_a_at) / RFU RCAN1 (11760418_a_at) / Fold change /veh RCAN1 (11760418_a_at) / RFU FAM167A (11723789_a_at) / Fold change /veh FAM167A (11723789_a_at) / RFU FAM26E (11764081_at) / Fold change /veh FAM26E (11764081_at) / RFU ISYNA1 (11749810_s_at) / Fold change /veh ISYNA1 (11749810_s_at) / RFU ACY1 (11761880_at) / Fold change /veh ACY1 (11761880_at) / RFU 11764098_at / Fold change /veh 11764098_at / RFU SAMD14 (11745864_x_at) / Fold change /veh SAMD14 (11745864_x_at) / RFU NPB (11741838_a_at) / Fold change /veh NPB (11741838_a_at) / RFU TMPRSS6 (11731388_a_at) / Fold change /veh TMPRSS6 (11731388_a_at) / RFU KRTAP10-2 (11738614_at) / Fold change /veh KRTAP10-2 (11738614_at) / RFU ARHGAP8 /// PRR5-ARHGAP8 (11727945_x_at) / Fold change /veh ARHGAP8 /// PRR5-ARHGAP8 (11727945_x_at) / RFU KRTAP5-7 /// NADSYN1 (11734609_at) / Fold change /veh KRTAP5-7 /// NADSYN1 (11734609_at) / RFU RASL12 (11751679_a_at) / Fold change /veh RASL12 (11751679_a_at) / RFU CDKN2B (11736163_a_at) / Fold change /veh CDKN2B (11736163_a_at) / RFU PRF1 (11729649_at) / Fold change /veh PRF1 (11729649_at) / RFU, ZNF638 /// ZNF638-IT1 / Fold change vs veh, ZNF638 /// ZNF638-IT1 / RFU, PANK3 / Fold change vs veh, PANK3 / RFU, SH3YL1 / Fold change vs veh, SH3YL1 / RFU, ZEB2 / Fold change vs veh, ZEB2 / RFU, NRIP1 / Fold change vs veh, NRIP1 / RFU, PTTG1IP / Fold change vs veh, PTTG1IP / RFU, CAPN2 / Fold change vs veh, CAPN2 / RFU, MED14 / Fold change vs veh, MED14 / RFU, SNORA58 / Fold change vs veh, SNORA58 / RFU, C1orf63 / Fold change vs veh, C1orf63 / RFU, LRRFIP1 / Fold change vs veh, LRRFIP1 / RFU, NDUFAF7 / Fold change vs veh, NDUFAF7 / RFU, SLC12A2 / Fold change vs veh, SLC12A2 / RFU, IBTK / Fold change vs veh, IBTK / RFU, ESF1 / Fold change vs veh, ESF1 / Fold change vs veh, TMEM50B / RFU, TAOK1 / Fold change vs veh, TAOK1 / RFU, ACBD3 / Fold change vs veh, ACBD3 / RFU, TMA16 / Fold change vs veh, TMA16 / RFU, RWDD3 / Fold change vs veh, RWDD3 / RFU, BCAT1 / Fold change vs veh, BCAT1 / RFU, EDEM3 / Fold change vs veh, EDEM3 / RFU, TMEM33 / Fold change vs veh, TMEM33 / RFU, WDR75 / Fold change vs veh, WDR75 / RFU, AHCTF1 / Fold change vs veh, AHCTF1 / RFU, TFRC / Fold change vs veh, TFRC / RFU, ZDHHC17 / Fold change vs veh, ZDHHC17 / RFU, NOM1 / Fold change vs veh, NOM1 / RFU, ARL8B / Fold change vs veh, ARL8B / RFU, ZBTB11 / Fold change vs veh, ZBTB11 / RFU, TAMM41 / Fold change vs veh, TAMM41 / RFU, KIAA1704 /// LOC100996395 / Fold change vs veh, KIAA1704 /// LOC100996395 / RFU, ING1 / Fold change vs veh, ING1 / RFU, TRMT61B / Fold change vs veh, TRMT61B / RFU, FUBP3 / Fold change vs veh, FUBP3 / RFU, TP53 / Fold change vs veh, TP53 / RFU, TNKS2 / Fold change vs veh, TNKS2 / RFU, ZFP14 / Fold change vs veh, ZFP14 / RFU, ACTR2 / Fold change vs veh, ACTR2 / RFU, PPP3R1 / Fold change vs veh, PPP3R1 / RFU, PIK3R1 / Fold change vs veh, PIK3R1 / RFU, HNRNPA1 / Fold change vs veh, HNRNPA1 / RFU, RNF170 / Fold change vs veh, RNF170 / RFU, ZNF28 / Fold change vs veh, ZNF28 / RFU, RNGTT / Fold change vs veh, RNGTT / RFU, OGT / Fold change vs veh, OGT / RFU, BRD1 / Fold change vs veh, BRD1 / RFU, MARS / Fold change vs veh, MARS / RFU, ZNF655 / Fold change vs veh, ZNF655 / RFU, FAHD1 / Fold change vs veh, FAHD1 / RFU, BDP1 / Fold change vs veh, BDP1 / RFU, LRRCC1 / Fold change vs veh, LRRCC1 / RFU, ARID1A / Fold change vs veh, ARID1A / RFU, ZNF146 / Fold change vs veh, ZNF146 / RFU, ZNF330 / Fold change vs veh, ZNF330 / RFU, GPN3 / Fold change vs veh, GPN3 / RFU, C9orf123 / Fold change vs veh, C9orf123 / RFU, N4BP2L2 / Fold change vs veh, N4BP2L2 / RFU, ARFIP1 / Fold change vs veh, ARFIP1 / RFU, FAM179B / Fold change vs veh, FAM179B / RFU, BCL10 / Fold change vs veh, BCL10 / RFU, UHRF1BP1L / Fold change vs veh, UHRF1BP1L / RFU, BET1 / Fold change vs veh, BET1 / RFU, CNOT2 / Fold change vs veh, CNOT2 / RFU, ZNF268 / Fold change vs veh, ZNF268 / Fold change vs veh, ZNF507 / RFU, DGCR2 / Fold change vs veh, DGCR2 / RFU, WDSUB1 / Fold change vs veh, WDSUB1 / Fold change vs veh, HSP90B1 /// MIR3652 / RFU, ADSS / Fold change vs veh, ADSS / RFU, GK / Fold change vs veh, GK / RFU, ZNF148 / Fold change vs veh, ZNF148 / RFU, TAF9 / Fold change vs veh, TAF9 / RFU, SLC1A5 / Fold change vs veh, SLC1A5 / RFU, SLMO2 / Fold change vs veh, SLMO2 / RFU, ABCC4 / Fold change vs veh, ABCC4 / RFU, LOC101060439 /// RAP1B / Fold change vs veh, LOC101060439 /// RAP1B / RFU, RFX7 / Fold change vs veh, RFX7 / RFU, GTPBP10 / Fold change vs veh, GTPBP10 / RFU, CNEP1R1 / Fold change vs veh, CNEP1R1 / RFU, BIVM-ERCC5 /// ERCC5 / Fold change vs veh, BIVM-ERCC5 /// ERCC5 / RFU, ILF3 / Fold change vs veh, ILF3 / RFU 11762660_at / Fold change /veh 11762660_at / RFU VCAN (11757783_s_at) / Fold change /veh VCAN (11757783_s_at) / RFU DDX43 (11728927_at) / Fold change /veh DDX43 (11728927_at) / RFU KRT8 (11758188_x_at) / Fold change /veh KRT8 (11758188_x_at) / RFU NKD1 (11759106_at) / Fold change /veh NKD1 (11759106_at) / RFU SRD5A1 (11742802_a_at) / Fold change /veh SRD5A1 (11742802_a_at) / RFU TPSAB1 /// TPSB2 (11721975_s_at) / Fold change /veh TPSAB1 /// TPSB2 (11721975_s_at) / RFU GSTM3 (11746129_a_at) / Fold change /veh GSTM3 (11746129_a_at) / RFU IL23R (11737362_x_at) / Fold change /veh IL23R (11737362_x_at) / RFU TMEM51 (11727254_a_at) / Fold change /veh TMEM51 (11727254_a_at) / RFU PIWIL2 (11732686_x_at) / Fold change /veh PIWIL2 (11732686_x_at) / RFU ORM1 (11744905_x_at) / Fold change /veh ORM1 (11744905_x_at) / RFU CCDC152 (11743942_at) / Fold change /veh CCDC152 (11743942_at) / RFU ECM1 (11717891_a_at) / Fold change /veh ECM1 (11717891_a_at) / RFU IL23R (11748794_a_at) / Fold change /veh IL23R (11748794_a_at) / RFU TNFAIP8L3 (11732012_x_at) / Fold change /veh TNFAIP8L3 (11732012_x_at) / RFU MBOAT4 (11741988_at) / Fold change /veh MBOAT4 (11741988_at) / RFU 11764193_at / Fold change /veh 11764193_at / RFU TMEM53 (11763286_at) / Fold change /veh TMEM53 (11763286_at) / RFU MAGEB2 (11727129_at) / Fold change /veh MAGEB2 (11727129_at) / RFU TMEM200A (11744735_a_at) / Fold change /veh TMEM200A (11744735_a_at) / RFU CCDC152 (11751479_a_at) / Fold change /veh CCDC152 (11751479_a_at) / RFU FAM211A (11726209_a_at) / Fold change /veh FAM211A (11726209_a_at) / RFU RGS16 (11746705_a_at) / Fold change /veh RGS16 (11746705_a_at) / RFU VCAN (11755009_s_at) / Fold change /veh VCAN (11755009_s_at) / RFU RHOB (11743442_s_at) / Fold change /veh RHOB (11743442_s_at) / RFU RGS16 (11720943_a_at) / Fold change /veh RGS16 (11720943_a_at) / RFU RGS16 (11720944_at) / Fold change /veh RGS16 (11720944_at) / RFU, VPS4B / Fold change vs veh, VPS4B / RFU, CREB1 / Fold change vs veh, CREB1 / RFU, DNAJC13 / Fold change vs veh, DNAJC13 / RFU, GNAQ / Fold change vs veh, GNAQ / RFU, CDK5R1 / Fold change vs veh, CDK5R1 / RFU, ZRANB3 / Fold change vs veh, ZRANB3 / RFU, CUL4A / Fold change vs veh, CUL4A / RFU, CCNY / Fold change vs veh, CCNY / RFU, UFL1 / Fold change vs veh, UFL1 / RFU, COG3 / Fold change vs veh, COG3 / RFU, DIAPH2 / Fold change vs veh, DIAPH2 / RFU, SKA2 / Fold change vs veh, SKA2 / RFU, AFF3 / Fold change vs veh, AFF3 / RFU, LMF1 / Fold change vs veh, LMF1 / RFU, IPO11 / Fold change vs veh, IPO11 / RFU, DFFB / Fold change vs veh, DFFB / RFU, FOXP1 / Fold change vs veh, FOXP1 / RFU, CARD8 / Fold change vs veh, CARD8 / RFU, STRN3 / Fold change vs veh, STRN3 / RFU, ADK / Fold change vs veh, ADK / RFU, RASSF2 / Fold change vs veh, RASSF2 / RFU, WIPF1 / Fold change vs veh, WIPF1 / RFU, LARP1B / Fold change vs veh, LARP1B / RFU, RASA1 / Fold change vs veh, RASA1 / RFU, RB1 / Fold change vs veh, RB1 / RFU, PPFIA1 / Fold change vs veh, PPFIA1 / RFU, MAT2A / Fold change vs veh, MAT2A / RFU, CCT5 / Fold change vs veh, CCT5 / RFU, WDR92 / Fold change vs veh, WDR92 / RFU, CUX1 / Fold change vs veh, CUX1 / RFU, TTC7A / Fold change vs veh, TTC7A / RFU, TMEM135 / Fold change vs veh, TMEM135 / RFU, DEPTOR / Fold change vs veh, DEPTOR / RFU, CPM / Fold change vs veh, CPM / RFU, DNAJB6 / Fold change vs veh, DNAJB6 / RFU, CACNA2D3 / Fold change vs veh, CACNA2D3 / RFU, DTX4 / Fold change vs veh, DTX4 / RFU, TFCP2 / Fold change vs veh, TFCP2 / RFU, GMCL1 /// GMCL1P1 / Fold change vs veh, GMCL1 /// GMCL1P1 / RFU, AEBP2 / Fold change vs veh, AEBP2 / RFU, SNHG1 /// SNORD22 /// SNORD25 /// SNORD26 /// SNORD27 /// SNORD28 /// SNORD29 /// SNORD31 / Fold change vs veh, SNHG1 /// SNORD22 /// SNORD25 /// SNORD26 /// SNORD27 /// SNORD28 /// SNORD29 /// SNORD31 / Fold change (Aza/veh), C12orf56 (ProbeSet 11735607_a_at) / Fold change (ACY-1035/veh), C12orf56 (ProbeSet 11735607_a_at) / Fold change (Aza/veh), FGFR1OP (ProbeSet 11751329_s_at) / Fold change (ACY-1035/veh), FGFR1OP (ProbeSet 11751329_s_at) / Fold change (Aza/veh), VPS36 (ProbeSet 11739960_a_at) / Fold change (ACY-1035/veh), VPS36 (ProbeSet 11739960_a_at) / RFU SYPL1 (11715823_x_at) / Fold change /veh SYPL1 (11715823_x_at) / RFU IGFBP7 (11715501_s_at) / Fold change /veh IGFBP7 (11715501_s_at) / RFU REEP3 (11722064_at) / Fold change /veh REEP3 (11722064_at) / RFU IGLL1 (11728026_x_at) / Fold change /veh IGLL1 (11728026_x_at): dose or concentration left out as unconfirmed
Conditions: ProbeSet 11725885_a_at; LIST B

For `Nc1ncn([C@@H]2O[C@H](CO)[C@@H](O)[C@H]2O)c(=O)n1` [azacitidine], the “RFU, CNEP1R1” value was 65.19 RFU.
